Laboratory results from paper PMC10361207, “Cannabinoid and Opioid Receptor Affinity and Modulation of Cancer-Related Signaling Pathways of Machaeriols and Machaeridiols from Machaerium Pers” (Molecules, 2023).

Assays:
κ opioid receptor = molecular target: T1, κ opioid receptor (Homo sapiens, UniProt P41145); type: binding; settings: 10 μM; [3H]-U-69,593
T1 construct: host or cells: HEK293, stably transfected; membranes
Experimental: HEK293 cells stably transfected with δ, κ and μ opioid subtypes were a generous gift from Roth Laboratories (University of North Carolina at Chapel Hill, N.C., USA). CB and opioid cells were maintained as previously described.
Membranes were purified by first washing the cells with cold PBS and scraping the cells into cold 50 mM Tris-HCl, pH 7.4 buffer, which was centrifuged at 5200× g for 10 min at 4 °C; next, the supernatant was discarded, and the pellet was washed with more Tris-HCl buffer, homogenized via a Sonic Dismembrator (Fisher Scientific, Pittsburgh, PA, USA) and then centrifuged at 24,000× g for 40 min at 4 °C. […] The total membrane protein concentration was measured using a Pierce BCA Protein Assay Kit (Thermo Scientific, Rockford, IL, USA) as per the manufacturer’s protocol.
Cannabinoid and opioid competitive radioligand binding assays were performed as previously described. […] Percent displacements were evaluated for all the cannabinoid and opioid subtypes with a triplicate of a fixed concentration (10 µg/mL for extracts and fractions and 10 μM for purified compounds). […] The percent displacement was calculated to represent the ability of the samples to displace the radioligand binding for a given cannabinoid or opioid receptor subtype.
The percent displacement was calculated as follows: 100−binding of compound−nonspecific binding/specific binding×100 […]

ETS = assay: Luciferase reporter assay, ETS, T98G; type: cell-based; settings: Homo sapiens; T98G cells; inducer PMA
Experimental: (§1) Hela cells (or T98G cells) from ATCC were plated in white opaque 384-well plates at a density of 4300 cells/well in 30 µL of growth medium (DMEM with 10% FBS and 1% Pen/Strep). The next day, the medium was aspirated and replaced with DMEM containing 1% FBS. The cells were transfected with respective plasmids using X-tremeGENE HP DNA transfection reagent (Roche). After 24 h of transfection, the test agents were added to the transfected cells, followed 30 min later by an inducing agent: interleukin 6 (IL-6) for Stat3, TGF-β for Smad, m-wnt3a for Wnt and PMA for AP-1, NF-κB, E2F, Myc, ETS, Notch and Hedgehog. No inducer was added for FoXO and pTK. After 4 h or 6 h of induction, the cells were lysed via the addition of the One-Glo luciferase assay system (Promega; Madison, WI). The light output was detected in a GloMax®-Multi+ Detection System with Instinct® Software (Promega E 8051). This luciferase assay determines if the test agent is able to inhibit the activation of cancer-related signaling pathways. In the case of FoxO, the enhanced luciferase activity via the test agent was assessed.

E2F = assay: Luciferase reporter assay, E2F, T98G; type: cell-based; settings: Homo sapiens; T98G cells; inducer PMA
Experimental: as §1

T1 sequence (P41145 whole entry): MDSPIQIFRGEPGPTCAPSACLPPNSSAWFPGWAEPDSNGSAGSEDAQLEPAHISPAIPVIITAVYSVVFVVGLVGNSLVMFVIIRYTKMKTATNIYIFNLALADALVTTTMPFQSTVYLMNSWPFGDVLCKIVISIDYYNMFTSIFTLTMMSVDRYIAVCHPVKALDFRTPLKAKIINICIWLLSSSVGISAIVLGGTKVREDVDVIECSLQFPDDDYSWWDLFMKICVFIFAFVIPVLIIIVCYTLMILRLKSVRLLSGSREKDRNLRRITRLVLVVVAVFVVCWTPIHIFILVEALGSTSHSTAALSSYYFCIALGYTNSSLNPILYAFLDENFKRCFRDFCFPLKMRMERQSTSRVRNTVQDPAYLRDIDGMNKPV

With `C[C@H]1CC[C@H]2[C@H](C1)c1c(O)cc(/C=C/c3ccccc3O)cc1OC2(C)C` [compound 3, machaeriol C] the “Percent displacement, ĸ” value (κ opioid receptor) was 6.4%.

Compound `C=C(C)[C@H]1CC[C@H](C)C[C@@H]1c1c(O)cc(/C=C/c2ccccc2O)cc1O` [compound 6, machaeridiol B] has an IC50 (ETS) of 5.9 µM and an IC50 (E2F) of 0.7 µM.
